Laboratory results from BindingDB's records for doi:10.1021/acs.jnatprod.9b00140 (University of Illinois At Chicago, 2019).

Biological target: Transcription factor p65 (Human, UniProt Q04206)
Test: Inhibition of TNF alpha stimulated NF-KappaB p65 in human HeLa nuclear extract assessed as decrease in NF-KappaB translocation to nucleus measured after 5 hrs by ELISA

Chain of Transcription factor p65 (Q04206 whole entry): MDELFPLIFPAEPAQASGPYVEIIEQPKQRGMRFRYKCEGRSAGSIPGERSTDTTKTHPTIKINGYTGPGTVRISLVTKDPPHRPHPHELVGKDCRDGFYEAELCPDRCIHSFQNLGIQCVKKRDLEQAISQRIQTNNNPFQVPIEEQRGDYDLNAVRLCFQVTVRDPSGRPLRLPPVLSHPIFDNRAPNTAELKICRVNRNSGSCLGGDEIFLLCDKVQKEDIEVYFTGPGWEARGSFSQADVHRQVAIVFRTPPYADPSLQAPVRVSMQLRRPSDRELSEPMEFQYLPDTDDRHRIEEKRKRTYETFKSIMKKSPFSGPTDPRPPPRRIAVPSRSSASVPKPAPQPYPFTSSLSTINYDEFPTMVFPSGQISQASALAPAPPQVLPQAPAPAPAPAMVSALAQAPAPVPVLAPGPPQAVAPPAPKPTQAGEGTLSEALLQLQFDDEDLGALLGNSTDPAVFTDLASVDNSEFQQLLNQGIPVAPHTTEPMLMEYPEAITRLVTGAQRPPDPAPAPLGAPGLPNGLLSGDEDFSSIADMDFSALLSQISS

## C[C@H]1O[C@@H](O[C@H]2CC[C@]3(C)[C@H]4CC[C@]5(C)[C@@H](C6=CC(=O)OC6)CC[C@]5(O)[C@@H]4CC[C@]3(O)C2)C[C@H](O)[C@@H]1O[C@@H]1O[C@H](CO)[C@@H](O)[C@H](O)[C@H]1O
  IC50: 4.3 µM
